From EP0595557A1, “New substituted azetidinones as anti-inflammatory and antidegenerative agents” (MERCK & CO. INC., priority 1992, dated 1994)

These compounds were tested against T1, Human Polymorphonuclear Leukocyte Elastase (Homo sapiens, UniProt P08246) (assay: Enzyme assay for inhibition of human polymorphonuclear leukocyte elastase via hydrolysis of Boc-AAPAN or Boc-AAPVN). Conditions: pH 7.5, second order rate constant for inactivation of the enzyme, expressed to the nearest thousand, read-out: Kobs/[I].
T1 construct: Crude extract of human polymorphonuclear leukocytes (PMN) containing elastase activity; from tissue; host or cells: human polymorphonuclear leukocytes (crude extract)
T1 sequence (P08246 30-267): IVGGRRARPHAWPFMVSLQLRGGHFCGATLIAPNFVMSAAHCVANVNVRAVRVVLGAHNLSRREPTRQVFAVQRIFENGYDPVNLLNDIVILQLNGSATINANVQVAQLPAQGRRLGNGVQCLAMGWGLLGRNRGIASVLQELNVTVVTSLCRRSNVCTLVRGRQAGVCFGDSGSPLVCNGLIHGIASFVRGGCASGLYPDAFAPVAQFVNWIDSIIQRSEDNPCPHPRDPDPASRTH
Type: biochemical
Procedure, shortened: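 Crude human PMN extract as enzyme source, with 0.2 mM Boc-AAPAN in 0.05M TES buffer pH 7.5. Inhibitors in DMSO were added to substrate before the extract, and rate was followed as ΔOD/min at 410 mµ. Values are kobs/I, the second-order inactivation rate constant (per mole per second).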

Row | kinact/KI [M⁻¹ s⁻¹] | Structure (SMILES)
1 | 807000 | CCC[C@@H](NC(=O)N1C(=O)C(CC)(CC)[C@@H]1Oc1ccc(CC(=O)N2CCOCC2)cc1)c1ccc(C)c(COC(=O)N(CC)CC)c1 [Compound 292]
2 | 876000 | CCC[C@@H](NC(=O)N1C(=O)C(CC)(CC)[C@@H]1Oc1ccc(CC(=O)NCC(=O)O)cc1)c1ccc(C)cc1 [Compound 47]
3 | 1.88e+06 | CCC[C@@H](NC(=O)N1C(=O)C(CC)(CC)[C@@H]1Oc1ccc(C(=O)N(CCN(C)C)CCN(C)C)cc1)c1ccc(C)cc1 [Compound 143]
4 | 3.25e+06 | CCC[C@@H](NC(=O)N1C(=O)C(CC)(CC)[C@@H]1Oc1ccc(C(=O)N2CCNCC2)cc1)c1ccc2c(c1)OCO2 [Compound 265a, [S-(R*,S*)]-2-[4-[[(4-Piperazin-1-yl)carbonyl]phenoxy] -((3,3-diethyl-N-[1-(3,4-methylenedioxyphenyl)butyl]-4-oxo-1-azetidinecarboxamide]
5 | 2.49e+06 | CCC[C@@H](NC(=O)N1C(=O)C(CC)(CC)[C@@H]1Oc1ccc(C(=O)N(C)CC[N+](C)([O-])Cc2ccccc2)cc1)c1ccc(C)cc1 (stereo partly drawn) [Compound 147]
6 | 3.23e+06 | CCC[C@@H](NC(=O)N1C(=O)C(CC)(CC)[C@@H]1Oc1ccc(C(=O)N(C)c2ccc(C(=O)NS(=O)(=O)c3ccccc3)cc2)cc1)c1ccc(C)cc1 [Compound 176]
7 | 1.78e+06 | CCC[C@@H](NC(=O)N1C(=O)C(CC)(CC)[C@@H]1Oc1ccc(C(=O)N(C)CCN(C)Cc2ccc(OC)cc2)cc1)c1ccc(C)cc1 [Compound 192]
8 | 992000 | CCCCN(CCCC)CCOC(=O)c1ccc(O[C@@H]2N(C(=O)N[C@H](CCC)c3ccc(C)cc3)C(=O)C2(CC)CC)cc1 [Compound 23, 2-(dibutylamino)ethyl [S-(R*,S*)]-4-[[3,3-diethyl-1-[[[1-(4-methyl-phenyl)butyl]amino]carbonyl]-4-oxo-2-azetidinyl]oxy]benzoate]
9 | 1.12e+06 | CCC[C@@H](NC(=O)N1C(=O)C(CC)(CC)[C@@H]1Oc1ccc(CC(=O)NCCCN(C)C)cc1)c1ccc(C)cc1 [Compound 45]
10 | 1.1e+06 | CCC[C@@H](NC(=O)N1C(=O)C(CC)(CC)[C@@H]1Oc1ccc(C(=O)N2CCNCC2)cc1)c1ccc(C)cc1 [Compound 247, [S-(R*,S*)]-2-[4-[[(4-Piperazin-1-yl)carbonyl]phenoxy] -((3,3-diethyl-N-[1-(4-methylphenyl)butyl]-4-oxo-1-azetidinecarboxamide]
11 | 1.69e+06 | CCC[C@@H](NC(=O)N1C(=O)C(CC)(CC)[C@@H]1Oc1ccc(CC(=O)OC(C)CN(C)C)cc1)c1ccc(C)cc1 (stereo partly drawn) [Compound 36]
12 | 1.91e+06 | CCC[C@@H](NC(=O)N1C(=O)C(CC)(CC)[C@@H]1Oc1ccc(C(=O)N(C)CCN(C)Cc2cccc(OC)c2)cc1)c1ccc(C)cc1 [Compound 205]
13 | 1.59e+06 | CCC[C@@H](NC(=O)N1C(=O)C(CC)(CC)[C@@H]1Oc1ccc(C(=O)N(C)CC(C)N(C)C)cc1)c1ccc(C)cc1 (stereo partly drawn) [Compound 219]
14 | 2.27e+06 | CCC[C@@H](NC(=O)N1C(=O)C(CC)(CC)[C@@H]1Oc1ccc(C(=O)N(C)CCc2ccccn2)cc1)c1ccc(C)cc1 [Compound 115]
15 | 2.34e+06 | CCC[C@@H](NC(=O)N1C(=O)C(CC)(CC)[C@@H]1Oc1ccc(CC(N)=O)cc1)c1ccc2c(c1)OCO2 [Compound 257]
16 | 440000 | CCC[C@@H](NC(=O)N1C(=O)C(CC)(CC)[C@@H]1Oc1ccc(CC(=O)OC)cc1)c1ccc(C(=O)N2CCOCC2)cc1 [Compound 276]
17 | 917000 | CCC[C@@H](NC(=O)N1C(=O)C(CC)(CC)[C@@H]1Oc1ccc(CC(=O)N(C)CCCC(=O)O)cc1)c1ccc(C)cc1 [Compound 64]
18 | 1.15e+06 | CCC[C@@H](NC(=O)N1C(=O)C(CC)(CC)[C@@H]1Oc1ccc(CC(=O)OCCCN(C)C)cc1)c1ccc(C)cc1 [Compound 33]

Row | kinact/KI [M⁻¹ s⁻¹] | Structure (SMILES)
19 | 838000 | CCC[C@@H](NC(=O)N1C(=O)C(CC)(CC)[C@@H]1Oc1ccc(C(=O)N(C)CCN(C)C)c(O)c1)c1ccc(C)cc1 [Compound 310]
20 | 860000 | CCC[C@@H](NC(=O)N1C(=O)C(CC)(CC)[C@@H]1Oc1ccc(C(=O)N2CC3CC2CN3C)cc1)c1ccc(C)cc1 (stereo partly drawn) [Compound 212]
21 | 2.1e+06 | CCC[C@@H](NC(=O)N1C(=O)C(CC)(CC)[C@@H]1Oc1ccc(C(=O)NCCN(C(C)C)C(C)C)cc1)c1ccc(C)cc1 [Compound 84]
22 | 3.7e+06 | CCC[C@@H](NC(=O)N1C(=O)C(CC)(CC)[C@@H]1Oc1ccc(C(=O)N2CCOCC2)cc1)c1ccc2c(c1)OCO2 [Compound 265d]
23 | 421000 | CCC[C@@H](NC(=O)N1C(=O)C(CC)(CC)[C@@H]1Oc1ccc(CC(=O)N2CCOCC2)cc1)c1ccc(C(=O)OCCN(C)C)cc1 [Compound 282]
24 | 1.2e+06 | CCC[C@@H](NC(=O)N1C(=O)C(CC)(CC)[C@@H]1Oc1ccc(C(=O)N(C)CC(O)C(O)C(O)C(O)CO)cc1)c1ccc(C)cc1 (stereo partly drawn) [Compound 156]
25 | 1.56e+06 | CCC[C@@H](NC(=O)N1C(=O)C(CC)(CC)[C@@H]1Oc1ccc(C(=O)OCCN(C)C(C)=O)cc1)c1ccc(C)cc1 (relative stereo) [Compound 7, 2-(N-methylacetamido)ethyl. {2-(R*,S*)}-4-{{3,3-Diethyl-1-{{{1-(4-methyl-phenyl)butyl}amino}carbonyl}-4-oxo-2-azetidinyl}oxy}-benzoate]
26 | 2.39e+06 | CCC[C@@H](NC(=O)N1C(=O)C(CC)(CC)[C@@H]1Oc1ccc(C(=O)N(C)CCc2c[nH]cn2)cc1)c1ccc(C)cc1 [Compound 104]
27 | 1.42e+06 | CCC[C@@H](NC(=O)N1C(=O)C(CC)(CC)[C@@H]1Oc1ccc(C(=O)N(C)C2CCN(CC)CC2)cc1)c1ccc(C)cc1 [Compound 217]
28 | 2.69e+06 | CCC[C@@H](NC(=O)N1C(=O)C(CC)(CC)[C@@H]1Oc1ccc(C(=O)N2CCC[C@H]2CN2CCCC2)cc1)c1ccc(C)cc1 [Compound 119]
29 | 1.87e+06 | CCC[C@@H](NC(=O)N1C(=O)C(CC)(CC)[C@@H]1Oc1ccc(C(=O)N(C)CCN(C)Cc2ccc(C)cc2)cc1)c1ccc(C)cc1 [Compound 178]
30 | 2.05e+06 | CCC[C@@H](NC(=O)N1C(=O)C(CC)(CC)[C@@H]1Oc1ccc(C(=O)N(C)CCN(C)Cc2ccccc2)cc1)c1ccc(C)cc1 [Compound 125]
31 | 2.48e+06 | CCC[C@@H](NC(=O)N1C(=O)C(CC)(CC)[C@@H]1Oc1ccc(C(=O)N2CCN(CC(C)C)CC2)cc1)c1ccc(C)cc1 [Compound 249]
32 | 1.84e+06 | CCC[C@@H](NC(=O)N1C(=O)C(CC)(CC)[C@@H]1Oc1ccc(C(=O)N(C)CCN(C)C2=CCCCC2)cc1)c1ccc(C)cc1 [Compound 225]
33 | 1.07e+06 | CCC[C@@H](NC(=O)N1C(=O)C(CC)(CC)[C@@H]1Oc1ccc(C(=O)NCCn2ccnc2)cc1)c1ccc(C)cc1 [Compound 97]
34 | 925000 | C=CCN(CCN(C)C(=O)c1ccc(O[C@@H]2N(C(=O)N[C@H](CCC)c3ccc(C)cc3)C(=O)C2(CC)CC)cc1)C(C)(C)C=C [Compound 231]
35 | 3.43e+06 | CCCC(NC(=O)N1C(=O)C(CC)(CC)C1Oc1ccc(C(=O)OCC(=O)N(CCO)CCO)cc1)c1ccc(C)cc1 (stereo not drawn) [Compound 3, 2-(bis(2-hydroxyethyl)amino)-2-oxoethyl(S-(R*,S*))-4-((3,3-diethyl-1-(((1-(4-methyl-phenyl)butyl)amino)carbonyl)-4-oxo-2-azetidinyl)oxy) benzoate]

Row | Structure (SMILES) | kinact/KI [M⁻¹ s⁻¹]
36 | CCC[C@@H](NC(=O)N1C(=O)C(CC)(CC)[C@@H]1Oc1ccc(CC(=O)N(C)CCN(C)C)cc1)c1ccc(C)cc1 [Compound 44] | 1.24e+06
